From patent US9090568B2, “Quinazolinediones and their use” (IMPACT Therapeutics, Inc., priority 2011, dated 2015)
Where two headings read alike, the source gives them in different places.

How the values were obtained:
PARP-1 = target: T1, PARP-1 (Homo sapiens, UniProt P09874); assay: PARP-1 activity assay (HT Universal chemiluminescent PARP Assay Kit); type: biochemical; details: 0.5 unit/well PARP-1, 25° C., 45 minutes; read-out: PARP1 enzyme IC50
T1 construct: purchased Trevigen
Protocol: PARP-1 activity was determined using a HT Universal chemiluminescent PARP Assay Kit (Trevigen, Gaithersburg, Md., USA). The assay was to measure the incorporation of biotinylated poly(ADP-ribose) onto histone proteins catalyzed by PARP-1 upon activation with DNA. Experimental procedures were followed according to the instruction provided with the assay kit. In brief, PARP-1 (0.5 unit/well) was incubated with activated DNA and NAD^+ in reaction buffer in the presence or absence of test articles in histone-coated strip wells at 25° C. for 45 minutes. After incubation, the strip wells were incubated with Strep-HRP at 25° C. for 60 minutes after washes with PBS containing 0.1% Triton X-100. The chemiluminescence was measured with a Victor X5 2030 Multilabel Reader (Perkin Elmer) immediately after the addition of PeroxyGlow™ to the strip wells. IC50 value was calculated using median-effect method (Chou, T. C. (2006). Pharmacol. Rev. 58(3): 621-681).

MDA-MB-436 cells = assay: Cell proliferation assay (MTS, 7 days); type: cell-based; details: Homo sapiens
Protocol: Cell Proliferation Assay:
MDA-MB-436 cells were purchased from American Type Culture Collection (USA). Cells were maintained at 37° C. in a humidified atmosphere with 5% CO2. For proliferation test, MDA-MB-436 cells were seeded in 96-well plates at low density in RPMI-1640 medium supplemented with 10% FBS and incubated for 24 h at 37° C. in a humidified atmosphere with 5% CO2. Cells were further incubated in fresh medium in the presence or absence of the test articles at 37° C. for 7 days. The proliferation of cells was measured with a 3-(4,5-dimethylthiazol-2-yl)-5-(3-carboxymethoxyphenyl)-2-(4-sulfophenyl)-2H-tetrazolium (MTS) assay using a CellTiter 96® Aqueous Non-Radioactive Cell Proliferation kit (Promega). The absorbance at 490 nm (A490) was determined with a Victor X5 2030 Multilabel Reader (Perkin Elmer). IC50 value was calculated using median-effect method (Chou, T. C. (2006). Pharmacol. Rev. 58(3): 621-681).

[1] = Pharmacokinetic assay, intravenous and oral administration; type: in vivo, Sprague-Dawley rats; details: after oral administrations in rats; for half-life: Sprague-Dawley, rat, plasma, read-out: t½
Protocol: The tested articles were given to Sprague-Dawley rats by intravenous and oral administration. Plasma samples were prepared from blood samples which were collected at various time points. The plasma concentrations of the tested articles were determined by specific LC-MS/MS analytical methods. Pharmacokinetic parameters were calculated with WinNonlin®.

[2] = 168 h, MDA-MB-436 cells, 7 days, MTS, read-out: MDA-MB-436 cells EC50

T1 sequence (P09874 whole entry): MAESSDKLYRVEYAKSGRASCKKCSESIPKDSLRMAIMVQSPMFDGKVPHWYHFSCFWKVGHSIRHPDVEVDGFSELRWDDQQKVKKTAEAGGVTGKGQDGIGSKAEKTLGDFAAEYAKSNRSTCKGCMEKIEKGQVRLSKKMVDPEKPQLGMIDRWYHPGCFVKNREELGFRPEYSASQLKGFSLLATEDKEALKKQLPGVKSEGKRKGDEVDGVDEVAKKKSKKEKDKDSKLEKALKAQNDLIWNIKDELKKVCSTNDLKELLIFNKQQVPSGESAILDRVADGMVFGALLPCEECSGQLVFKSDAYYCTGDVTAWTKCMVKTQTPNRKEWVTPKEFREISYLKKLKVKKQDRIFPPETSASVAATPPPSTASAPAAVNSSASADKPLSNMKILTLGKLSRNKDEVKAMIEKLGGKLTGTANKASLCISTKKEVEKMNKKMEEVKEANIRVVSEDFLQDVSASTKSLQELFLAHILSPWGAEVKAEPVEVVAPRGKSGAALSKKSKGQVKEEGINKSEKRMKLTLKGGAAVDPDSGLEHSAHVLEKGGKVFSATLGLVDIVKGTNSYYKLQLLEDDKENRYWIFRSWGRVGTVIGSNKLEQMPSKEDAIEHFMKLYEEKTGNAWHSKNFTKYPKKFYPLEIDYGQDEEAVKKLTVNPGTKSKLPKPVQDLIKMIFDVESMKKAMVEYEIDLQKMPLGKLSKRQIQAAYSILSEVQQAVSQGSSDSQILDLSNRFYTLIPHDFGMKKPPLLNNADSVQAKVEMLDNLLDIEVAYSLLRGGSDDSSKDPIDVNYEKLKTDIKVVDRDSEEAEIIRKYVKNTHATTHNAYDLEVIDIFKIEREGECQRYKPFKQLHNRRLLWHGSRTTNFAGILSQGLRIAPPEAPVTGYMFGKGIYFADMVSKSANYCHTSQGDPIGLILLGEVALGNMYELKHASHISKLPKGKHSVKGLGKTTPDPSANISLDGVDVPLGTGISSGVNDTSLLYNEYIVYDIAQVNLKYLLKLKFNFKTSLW

Q: For `CC1(C(=O)N2CCN(C(=O)c3cc(Cn4c(=O)[nH]c(=O)c5ccccc54)ccc3F)CC2)CCCN1` (stereo in doubt) [Example 40, (R)-1-(4-fluoro-3-(4-(2-methylpyrrolidine-2-carbonyl)piperazine-1-carbonyl)benzyl)quinazoline-2,4(1H,3H)-dione], which IC50 (PARP-1) is on record?
A: The IC50 was 0.1 to 10 nM.

Q: And the EC50 (MDA-MB-436 cells; [2])?
A: The EC50 was greater than 0.01 µM.

Q: Which IC50 (PARP-1) does the source give for `O=C(c1cc(Cn2c(=O)[nH]c(=O)c3ccccc32)ccc1F)N1CCN(C(=O)C2CC2)CC1` [Example 1] here?
A: The IC50 was 0.1 to 10 nM.

Q: What about the EC50 (MDA-MB-436 cells; MDA-MB-436, 168 h, read-out: MDA-MB-436 cells EC50 (μM)) of the same compound?
A: Its EC50 is greater than 0.01 µM.

Q: What does the source list for `O=C(c1cccc(Cn2c(=O)[nH]c(=O)c3ccccc32)c1)N1CCN(C(=O)C2CC2)CC1` [Example 2]?
A: IC50 (PARP-1): 0.1 to 10 nM; EC50 (MDA-MB-436 cells; [2]): 1 to 100 µM

Q: With `O=C(c1cc(Cn2c(=O)[nH]c(=O)c3ccccc32)ccc1Cl)N1CCN(C(=O)C2CC2)CC1` [Example 3] as the compound, how does the IC50 (PARP-1) read?
A: The IC50 was 0.1 to 10 nM.

Q: And the EC50 (MDA-MB-436 cells; [2])?
A: Its EC50 is 1 to 100 µM.

Q: What does the source list for `O=C(c1cc(Cn2c(=O)[nH]c(=O)c3ccccc32)ccc1F)N1CCCCC1` [Example 4]?
A: IC50 (PARP-1): > 10 nM; EC50 (MDA-MB-436 cells; [2]): 1 to 100 µM

Q: With `O=C(c1cc(Cn2c(=O)[nH]c(=O)c3ccccc32)ccc1F)N1CCC(OC(F)F)CC1` [Example 11] as the compound, how does the IC50 (PARP-1) read?
A: The IC50 was 0.1 to 10 nM.

Q: And the EC50 (MDA-MB-436 cells; [2])?
A: Its EC50 is 1 to 100 µM.

Q: Which results are given for `O=C(c1cc(Cn2c(=O)[nH]c(=O)c3ccccc32)ccc1F)N1CCC(Oc2ccccn2)CC1` [Example 12]?
A: IC50 (PARP-1): 0.1 to 10 nM; EC50 (MDA-MB-436 cells; [2]): 0.0001 to 0.01 µM

Q: Which IC50 (PARP-1) does the source give for `O=C(c1cc(Cn2c(=O)[nH]c(=O)c3ccccc32)ccc1F)N1CCC(n2cc(Br)cn2)CC1` [Example 14] here?
A: The IC50 was 0.1 to 10 nM.

Q: What about the EC50 (MDA-MB-436 cells; [2]) of the same compound?
A: Its EC50 is greater than 0.01 µM.

Q: For `O=C(c1cc(Cn2c(=O)[nH]c(=O)c3ccccc32)ccc1F)N1CCC(n2cccn2)CC1` [Example 15], which IC50 (PARP-1) is on record?
A: Its IC50 is 0.1 to 10 nM.

Q: What about the EC50 (MDA-MB-436 cells; [2]) of the same compound?
A: Its EC50 is 1 to 100 µM.

Q: Which IC50 (PARP-1) does the source give for `O=C(c1cc(Cn2c(=O)[nH]c(=O)c3ccccc32)ccc1F)N1CCC(N2CCCC2)CC1` [Example 17] here?
A: The IC50 was 0.1 to 10 nM.

Q: What about the EC50 (MDA-MB-436 cells; [2]) of the same compound?
A: The EC50 was greater than 0.01 µM.

Q: With `COC(=O)C1CCN(C(=O)c2cc(Cn3c(=O)[nH]c(=O)c4ccccc43)ccc2F)CC1` [Example 18] as the compound, how does the IC50 (PARP-1) read?
A: The IC50 was 0.1 to 10 nM.

Q: What about the EC50 (MDA-MB-436 cells; [2]) of the same compound?
A: Its EC50 is 1 to 100 µM.

Q: For `CCNC(=O)OC1CCN(C(=O)c2cc(Cn3c(=O)[nH]c(=O)c4ccccc43)ccc2F)CC1` [Example 19], which IC50 (PARP-1) is on record?
A: The IC50 was greater than 10 nM.

Q: And the EC50 (MDA-MB-436 cells; [2])?
A: The EC50 was 1 to 100 µM.

Q: Which IC50 (PARP-1) does the source give for `O=C(O)C1CCN(C(=O)c2cc(Cn3c(=O)[nH]c(=O)c4ccccc43)ccc2F)CC1` [Example 20] here?
A: The IC50 was greater than 10 nM.

Q: What does the source list for `O=C(NC1CC1)C1CCN(C(=O)c2cc(Cn3c(=O)[nH]c(=O)c4ccccc43)ccc2F)CC1` [Example 21]?
A: IC50 (PARP-1): > 10 nM; EC50 (MDA-MB-436 cells; [2]): 1 to 100 µM

Q: With `O=C(c1cc(Cn2c(=O)[nH]c(=O)c3ccccc32)ccc1F)N1CCC(ON=C2CCc3ccccc32)CC1` [Example 22] as the compound, how does the IC50 (PARP-1) read?
A: The IC50 was greater than 10 nM.

Q: With `O=C(c1cc(Cn2c(=O)[nH]c(=O)c3ccccc32)ccc1F)N1Cc2cccc(F)c2C1` [Example 24] as the compound, how does the IC50 (PARP-1) read?
A: The IC50 was 0.1 to 10 nM.

Q: What about the EC50 (MDA-MB-436 cells; [2]) of the same compound?
A: Its EC50 is greater than 0.01 µM.

Q: For `O=C(c1cc(Cn2c(=O)[nH]c(=O)c3ccccc32)ccc1F)N1Cc2cccnc2C1` [Example 25], which IC50 (PARP-1) is on record?
A: Its IC50 is 0.1 to 10 nM.

Q: What about the EC50 (MDA-MB-436 cells; [2]) of the same compound?
A: Its EC50 is greater than 0.01 µM.

Q: What about the half-life [1] of the same compound?
A: Its half-life is greater than 2 h.

Q: And the “bioavailability (in words)” value [1]?
A: Its value is “bioavailable”.

Q: With `O=C(c1cc(Cn2c(=O)[nH]c(=O)c3ccccc32)ccc1F)N1Cc2nccnc2C1` [Example 26] as the compound, how does the IC50 (PARP-1) read?
A: Its IC50 is 0.1 to 10 nM.

Q: What about the EC50 (MDA-MB-436 cells; [2]) of the same compound?
A: Its EC50 is greater than 0.01 µM.

Q: Which IC50 (PARP-1) does the source give for `O=C(c1cc(Cn2c(=O)[nH]c(=O)c3ccccc32)ccc1F)N1CCN(c2ncccn2)CC1` [Example 28] here?
A: The IC50 was 0.1 to 10 nM.

Q: What about the EC50 (MDA-MB-436 cells; [2]) of the same compound?
A: The EC50 was 0.0001 to 0.01 µM.

Q: Which IC50 (PARP-1) does the source give for `O=C(c1cc(Cn2c(=O)[nH]c(=O)c3ccccc32)ccc1F)N1CC=C(c2ccc(F)cc2)CC1` [Example 29] here?
A: The IC50 was 0.1 to 10 nM.

Q: What about the EC50 (MDA-MB-436 cells; [2]) of the same compound?
A: The EC50 was 1 to 100 µM.

Q: What does the source list for `O=C(c1ccccn1)N1CCN(C(=O)c2cc(Cn3c(=O)[nH]c(=O)c4ccccc43)ccc2F)CC1` [Example 30]?
A: IC50 (PARP-1): 0.1 to 10 nM; EC50 (MDA-MB-436 cells; [2]): > 0.01 µM

Q: For `O=C(c1cc(Cn2c(=O)[nH]c(=O)c3ccccc32)ccc1F)N1CCNCC1` [Example 30b, 1-(4-fluoro-3-(piperazine-1-carbonyl)benzyl)quinazoline-2,4(1H,3H)-dione hydrochloric acid], which IC50 (PARP-1) is on record?
A: The IC50 was 0.1 to 10 nM.

Q: Which IC50 (PARP-1) does the source give for `O=C(c1ccno1)N1CCN(C(=O)c2cc(Cn3c(=O)[nH]c(=O)c4ccccc43)ccc2F)CC1` [Example 31] here?
A: The IC50 was 0.1 to 10 nM.

Q: What about the EC50 (MDA-MB-436 cells; [2]) of the same compound?
A: Its EC50 is greater than 0.01 µM.

Q: Which results are given for `O=C(c1cnccn1)N1CCN(C(=O)c2cc(Cn3c(=O)[nH]c(=O)c4ccccc43)ccc2F)CC1` [Example 32]?
A: IC50 (PARP-1): 0.1 to 10 nM; EC50 (MDA-MB-436 cells; [2]): > 0.01 µM

Q: Which IC50 (PARP-1) does the source give for `Cc1cnc(C(=O)N2CCN(C(=O)c3cc(Cn4c(=O)[nH]c(=O)c5ccccc54)ccc3F)CC2)cn1` [Example 33] here?
A: Its IC50 is 0.1 to 10 nM.

Q: What about the EC50 (MDA-MB-436 cells; [2]) of the same compound?
A: The EC50 was greater than 0.01 µM.

Q: What does the source list for `O=C(c1cnco1)N1CCN(C(=O)c2cc(Cn3c(=O)[nH]c(=O)c4ccccc43)ccc2F)CC1` [Example 34]?
A: IC50 (PARP-1): 0.1 to 10 nM; EC50 (MDA-MB-436 cells; [2]): > 0.01 µM

Q: Which IC50 (PARP-1) does the source give for `Cc1cc(C(=O)N2CCN(C(=O)c3cc(Cn4c(=O)[nH]c(=O)c5ccccc54)ccc3F)CC2)no1` [Example 35] here?
A: Its IC50 is 0.1 to 10 nM.

Q: What about the EC50 (MDA-MB-436 cells; [2]) of the same compound?
A: The EC50 was greater than 0.01 µM.

Q: Which IC50 (PARP-1) does the source give for `Cc1cc(C(=O)N2CCN(C(=O)c3cc(Cn4c(=O)[nH]c(=O)c5ccccc54)ccc3F)CC2)on1` [Example 36] here?
A: Its IC50 is 0.1 to 10 nM.

Q: What about the EC50 (MDA-MB-436 cells; [2]) of the same compound?
A: Its EC50 is greater than 0.01 µM.

Q: Which results are given for `Cc1nc(C)c(C(=O)N2CCN(C(=O)c3cc(Cn4c(=O)[nH]c(=O)c5ccccc54)ccc3F)CC2)o1` [Example 37]?
A: IC50 (PARP-1): 0.1 to 10 nM; EC50 (MDA-MB-436 cells; [2]): > 0.01 µM

Q: Which IC50 (PARP-1) does the source give for `O=C(c1cc(Cn2c(=O)[nH]c(=O)c3ccccc32)ccc1F)N1CCN(C(=O)C2CCCO2)CC1` (stereo not shown) [Example 38] here?
A: Its IC50 is 0.1 to 10 nM.

Q: And the EC50 (MDA-MB-436 cells; [2])?
A: The EC50 was greater than 0.01 µM.

Q: What about the half-life [1] of the same compound?
A: Its half-life is greater than 2 h.

Q: What about the “bioavailability (in words)” value [1] of the same compound?
A: Its value is “bioavailable”.

Q: For `CC1(C(=O)N2CCN(C(=O)c3cc(Cn4c(=O)[nH]c(=O)c5ccccc54)ccc3F)CC2)CCCO1` (stereo not shown) [Example 39], which IC50 (PARP-1) is on record?
A: The IC50 was 0.1 to 10 nM.

Q: And the EC50 (MDA-MB-436 cells; [2])?
A: The EC50 was greater than 0.01 µM.

Q: What does the source list for `CCOC(=O)N1CCN(C(=O)c2cc(Cn3c(=O)[nH]c(=O)c4ccccc43)ccc2F)CC1` [Example 41]?
A: IC50 (PARP-1): 0.1 to 10 nM; EC50 (MDA-MB-436 cells; [2]): > 0.01 µM

Q: Which results are given for `O=C(OC1CCCC1)N1CCN(C(=O)c2cc(Cn3c(=O)[nH]c(=O)c4ccccc43)ccc2F)CC1` [Example 42]?
A: IC50 (PARP-1): 0.1 to 10 nM; EC50 (MDA-MB-436 cells; [2]): > 0.01 µM
